Laboratory results taken from patent US10953027B2, “Active agents and methods of their use for the treatment of metabolic disorders and nonalcoholic fatty liver disease” (Flagship Pioneering Innovations V, Inc., priority 2018, dated 2021).

Key:
Format in all cases: in vitro ADME
[1] = Assay 1. Stability in Simulated Gastric Fluid (SGF); details: 1 μM, 37° C., SGF pH 1.6 with pepsin
In short: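 Acylated compounds at a final 1 μM (diluted from 1 mM DMSO stock) were incubated at 37 °C in SGF of pH 1.6 NaCl buffer with FaSSIF powder and 0.1 mg/mL pepsin. Aliquots were quenched with acetonitrile at T0 and regular intervals, and degradation rates were determined by LC/MS.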

[2] = Assay 3. Fecal Incubation Stability; details: 1 or 10 μM, human fecal slurry, anaerobic
Protocol: Assay 3. Fecal Incubation Stability. This assay was used to assess the stability of an acylated active agent in a large intestine. All experiments were performed in an anaerobic chamber containing 90% nitrogen, 5% hydrogen and 5% carbon dioxide. Human fecal matter in a slurry (15% WV) is added to 96 well plates containing YCFA media or other suitable media (1.6 mL). Compounds were added to each individual well to reach a final analyte concentration of 1 or 10 μM, and the material was mixed by pipetting. At set time points a sample was removed, quenched with acetonitrile, and analyzed by LC/MS.

[3] = Assay 2. Stability in Simulated Intestinal Fluid (SIF); details: 1 μM, 37° C., SIF pH 6.7 with pancreatin
In short: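 Acylated compounds at 1 μM (from 1 mM DMSO stock) in fresh SIF: FaSSIF with pancreatin in pH 6.7 phosphate buffer, agitated at 37 °C. Aliquots from T0 onward quenched with 1 volume acetonitrile; LC/MS gives degradation rates.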

Row | SMILES | Assay 1 (SGF) (% Remaining @ 1 hours) [1] | Assay 3 (% Remaining at 24 h) [2] | Assay 2 (SIF) (% @ Remaining 4 hours) [3]
1 | CCC(=O)OC1O[C@H](C(=O)O)[C@@H](OC(=O)CC)[C@H](OC(=O)CC)[C@H]1OC(=O)CC (stereo in doubt) [Compound 80, (2S,3S,4S,5R,6S)-3,4,5,6-tetrakis(propanoyloxy)oxane-2-carboxylic Acid] | C (C: >75% of the tested compound remaining) | A (A: <25% of the tested compound remaining) | A (A: <25% of the tested compound remaining)
2 | CCCC(=O)Oc1cc(OC(=O)CCC)c2c(c1)O[C@H](c1cc(OC(=O)CCC)c(OC(=O)CCC)c(OC(=O)CCC)c1)[C@H](OC(=O)c1cc(OC(=O)CCC)c(OC(=O)CCC)c(OC(=O)CCC)c1)C2 [Compound 3, [(2R,3R)-5,7-di(butanoyloxy)-2-[3,4,5-tri(butanoyloxy)phenyl]chroman-3-yl] 3,4,5-tri(butanoyloxy)benzoate] | C (C: >75% of the tested compound remaining) | C (C: >75% of the tested compound remaining) | C (C: >75% of the tested compound remaining)
3 | CC(=O)O[C@@H]1[C@H](OC(C)=O)C=C(C(=O)O)C[C@H]1OC(C)=O [Compound 43, (3R,4S,5R)-3,4,5-triacetoxycyclohex-1-ene-1-carboxylic Acid] | C (C: >75% of the tested compound remaining) | B (B: 25-75% of the tested compound remaining) | C (C: >75% of the tested compound remaining)
4 | CO[C@@H]1OC[C@@H](OC(C)=O)[C@H](OC(C)=O)[C@H]1OC(C)=O [Compound 45, (2R,3R,4S,5R)-2-methoxytetrahydro-2H-pyran-3,4,5-triyl Triacetate] | C (C: >75% of the tested compound remaining) | B (B: 25-75% of the tested compound remaining) | B (B: 25-75% of the tested compound remaining)
5 | CO[C@H]1OC[C@@H](OC(C)=O)[C@H](OC(C)=O)[C@H]1OC(C)=O [Compound 46, (2S,3R,4S,5R)-2-methoxytetrahydro-2H-pyran-3,4,5-triyl Triacetate] | C (C: >75% of the tested compound remaining) | B (B: 25-75% of the tested compound remaining) | B (B: 25-75% of the tested compound remaining)
6 | CCC(=O)O[C@H]1O[C@H](C(=O)O)[C@@H](OC(=O)CC)[C@H](OC(=O)CC)[C@H]1OC(=O)CC [Compound 79, (2S,3S,4S,5R,6R)-3,4,5,6-tetrakis(propanoyloxy)oxane-2-carboxylic Acid] | C (C: >75% of the tested compound remaining) | A (A: <25% of the tested compound remaining) | A (A: <25% of the tested compound remaining)
7 | CCCC(=O)O[C@H]1[C@H](OC)OC[C@@H](OC(=O)CCC)[C@H]1OC(=O)CCC [Compound 83, (2R,3R,4R,5R)-3,5-bis(butanoyloxy)-2-methoxyoxan-4-yl Butanoate] | C (C: >75% of the tested compound remaining) | A (A: <25% of the tested compound remaining) | A (A: <25% of the tested compound remaining)
8 | CCC(=O)OC[C@H]1O[C@@H](OC)[C@H](OC(=O)CC)[C@@H](OC(=O)CC)[C@H]1OC(=O)CC [Compound 94, [(2R,3S,4S,5R,6R)-6-methoxy-3,4,5-tris(propanoyloxy)oxan-2-yl]methyl Propanoate] |  | A (A: <25% of the tested compound remaining) | A (A: <25% of the tested compound remaining)
9 | C[C@@H]1O[C@@H](OC(=O)CCc2c[nH]c3ccccc23)[C@@H](OC(=O)CCc2c[nH]c3ccccc23)[C@H](OC(=O)CCc2c[nH]c3ccccc23)[C@@H]1OC(=O)CCc1c[nH]c2ccccc12 [Compound 97, (2S,3S,4R,5R,6S)-3,4,5-tris({[3-(1H-indol-3-yl)propanoyl]oxy})-6-methyloxan-2-yl 3-(1H-indol-3-yl)propanoate] |  | A (A: <25% of the tested compound remaining) | A (A: <25% of the tested compound remaining)
10 | CCCC(=O)O[C@@H]1[C@@H](OC(=O)CCC)[C@H](C)O[C@H](OC(=O)CCc2c[nH]c3ccccc23)[C@@H]1OC(=O)CCC [Compound 119, (2R,3R,4R,5S,6S)-4,5-bis(butanoyloxy)-2-{[3-(1H-indol-3-yl)propanoyl]oxy}-6-methyloxan-3-yl Butanoate] | B (B: 25-75% of the tested compound remaining) | A (A: <25% of the tested compound remaining) | 
11 | CCCC(=O)O[C@H]1[C@H](OC(=O)CCC)[C@@H](OC(=O)CCc2c[nH]c3ccccc23)O[C@@H](C)[C@H]1OC(=O)CCC [Compound 120, (2R,3S,4R,5R,6S)-4,5-bis(butanoyloxy)-2-{[3-(1H-indol-3-yl)propanoyl]oxy}-6-methyloxan-3-yl Butanoate] | B (B: 25-75% of the tested compound remaining) | A (A: <25% of the tested compound remaining) | 
12 | CCCC(=O)O[C@@H]1[C@@H](OC(=O)CCC)[C@H](OC)OC[C@H]1OC(=O)CCC [Compound 121, (2R,3R,4S,5R)-4,5-bis(butanoyloxy)-2-methoxyoxan-3-yl Butanoate] |  | A (A: <25% of the tested compound remaining) | A (A: <25% of the tested compound remaining)
13 | CCCC(=O)O[C@@H]1[C@@H](OC(=O)CCC)[C@H](OC(=O)CCc2c[nH]c3ccccc23)OC[C@H]1OC(=O)CCC [Compound 129, (2S,3R,4S,5R)-4,5-bis(butanoyloxy)-2-{[3-(1H-indol-3-yl)propanoyl]oxy}oxan-3-yl Butanoate] | B (B: 25-75% of the tested compound remaining) | A (A: <25% of the tested compound remaining) | 
14 | CCC(=O)OC[C@H]1O[C@H](OC(=O)/C=C/c2c[nH]c3ccccc23)[C@H](OC(=O)CC)[C@@H](OC(=O)CC)[C@@H]1OC(=O)CC [Compound 131, (2R,3R,4S,5R,6R)-3,4,5-tris(propanoyloxy)-6-[(propanoyloxy)methyl]oxan-2-yl (2E)-3-(1H-indol-3-yl)prop-2-enoate] | B (B: 25-75% of the tested compound remaining) | A (A: <25% of the tested compound remaining) | 
15 | CCC(=O)O[C@@H]1[C@@H](OC(=O)CC)[C@H](OC(=O)/C=C/c2c[nH]c3ccccc23)OC[C@@H]1OC(=O)CC [Compound 132, (2S,3R,4S,5S)-3,4,5-tris(propanoyloxy)oxan-2-yl (2E)-3-(1H-indol-3-yl)prop-2-enoate] | B (B: 25-75% of the tested compound remaining) | A (A: <25% of the tested compound remaining) | 
16 | CCC(=O)O[C@H]1[C@H](OC(=O)CC)[C@H](OC(=O)CCc2c[nH]c3ccccc23)O[C@@H](C)[C@H]1OC(=O)CC [Compound 155, (2S,3S,4R,5R,6S)-6-methyl-3,4,5-tris(propanoyloxy)oxan-2-yl 3-(1H-indol-3-yl)propanoate] |  | A (A: <25% of the tested compound remaining) | C (C: >75% of the tested compound remaining)
17 | O=C(CCc1c[nH]c2ccccc12)O[C@H]1OC[C@H](OC(=O)CCc2c[nH]c3ccccc23)[C@H](OC(=O)CCc2c[nH]c3ccccc23)[C@H]1OC(=O)CCc1c[nH]c2ccccc12 [Compound 181, (2R,3R,4S,5S)-3,4,5-tris({[3-(1H-indol-3-yl)propanoyl]oxy})oxan-2-yl 3-(1H-indol-3-yl)propanoate] |  | A (A: <25% of the tested compound remaining) | A (A: <25% of the tested compound remaining)
18 | CCCC(=O)O[C@H]1[C@H](OC(=O)CCC)COC(O)[C@@H]1OC(=O)CCC (stereo partly drawn) [Compound 190, (3R,4S,5R)-4,5-bis(butanoyloxy)-2-hydroxyoxan-3-yl Butanoate] |  | A (A: <25% of the tested compound remaining) | A (A: <25% of the tested compound remaining)
19 | O=C(CCc1c[nH]c2ccccc12)Oc1ccc2c(c1)oc(=O)c1cc(OC(=O)CCc3c[nH]c4ccccc34)c(OC(=O)CCc3c[nH]c4ccccc34)cc12 [Compound 246, 8,9-bis({[3-(1H-indol-3-yl)propanoyl]oxy})-6-oxo-6H-benzo[c]chromen-3-yl 3-(1H-indol-3-yl)propanoate] |  | B (B: 25-75% of the tested compound remaining) | B (B: 25-75% of the tested compound remaining)
